Test results from PubChem BioAssay AID504860 (Southern Research Specialized Biocontainment Screening …, 2011).
The source made the active and inactive calls. How the calls were made is not given here.

How the values were obtained:
[1] = confirmation, H37Rv, purified and synthesized compounds, set 4 (AID 504860); conditions: M. tuberculosis H37Rv growth inhibition, glycerol-free medium; at 100 µM (top of the series)
[2] = system: M. tuberculosis H37Rv growth inhibition, glycerol-free medium; assay: as above; conditions: for IC50: measured here: growth inhibition IC50

| SMILES | inhibition [1] | IC90 [2] | IC50 [2] |
| --- | --- | --- | --- |
| O=C(CSc1ncccn1)NC1CCCCC1 | 0.1% (inactive) |  |  |
| COc1cccc(NC(=O)CSc2nc3c(c(=O)[nH]2)CCC3)c1 | -4.12% (inactive) |  |  |
| COC(=O)C(Nc1nc(SCC(=O)NC2CCCCC2)nc2ccccc12)c1ccccc1 (stereo not drawn) | 5.93% (inactive) |  |  |
| Cc1nc(SCC(=O)NC2CCCC2)[nH]c(=O)c1C |  | 15.6 µM | 9.11 µM |
| CC(C)NC(=O)CSc1nc2ccccc2c(=O)[nH]1 |  | 19.3 µM | 11.5 µM |
| CCOC(=O)CSc1nc(C)c(C)c(=O)[nH]1 | 8.77% (inactive) |  |  |
| Cc1nc(SCC(=O)N(C)c2ccccc2)[nH]c(=O)c1C | 6.73% (inactive) |  |  |
| Cn1c(SCC(=O)NC2CCCCC2)nc2ccccc2c1=O | 6.07% (inactive) |  |  |
| CCOc1ccc(-c2cc(C)[n+](CCc3ccc(OC)c(OC)c3)c(-c3ccc(OCC)cc3)c2)cc1 |  | 1.63 µM | 1.01 µM |
| CC[N+](C)(CC)CCCCOc1ccc2c(c1)C(=O)c1cc(OCCCC[N+](C)(CC)CC)ccc1-2 |  | 3.06 µM | 2.14 µM |
| CNC(=O)CSc1nc2ccccc2c(=O)[nH]1 |  | 99.1 µM | > 68.7 µM |
| Cc1c[nH]c(=S)[nH]c1=O | 2.03% (inactive) |  |  |
| COC(=O)C(C)Oc1ccc(Cc2ncc(C(F)(F)F)cc2Cl)cc1 (stereo not drawn) |  | 5.63 µM | 3.62 µM |
| CC1CCN(C(=O)C2CCN(c3nnc(-n4cccc4)s3)CC2)CC1 |  | 7.33 µM | 3.2 µM |
| Cc1cc(C)n2nc(N)c(N=Nc3ccccc3)c2n1 |  | 6.75 µM | 4.45 µM |
| Cc1nc(SCC(=O)NCCC(C)C)[nH]c(=O)c1C |  | 13.3 µM | 8.78 µM |
| Cc1[nH]c2ccccc2c1C(=O)COC(=O)c1ccc([N+](=O)[O-])s1 |  | 5.21 µM | 2.53 µM |
| Cc1ccc(NC(=O)COC(=O)CCc2c[nH]c3ccccc23)cc1[N+](=O)[O-] |  | 7.41 µM | 3.2 µM |
| O=C(CSc1nc2ccccc2c(=O)[nH]1)NC1CCCCC1 |  | 0.52 µM | 0.31 µM |
| Cc1nc(SCc2ccccc2Cl)[nH]c(=O)c1C | 6.97% (inactive) |  |  |

| SMILES | inhibition [1] | IC90 [2] | IC50 [2] |
| --- | --- | --- | --- |
| O=C(CSc1nccc(=O)[nH]1)NC1CCCCC1 | 7.67% (inactive) |  |  |
| CN1CCC(NC(=O)CSc2nc3ccccc3c(=O)[nH]2)CC1 | 8.01% (inactive) |  |  |
| CC(C)CCNC(=O)CSc1nc2c(c(=O)[nH]1)CCC2 |  | 2.69 µM | 1.68 µM |
| O=C(CSc1nc2ccccc2c(=O)[nH]1)NCc1ccc(Cl)cc1 |  | 1.58 µM | 1.07 µM |
| CC1CCN(C(=O)CSc2nc3ccccc3c(=O)[nH]2)CC1 | 8.81% (inactive) |  |  |
| Nc1c(C(=O)NC2CCCCC2)nsc1C(=O)OCC(=O)NC1CCCCC1 |  | 8.13 µM | 4.25 µM |
| O=C(CSc1ccccn1)NC1CCCCC1 | 6.13% (inactive) |  |  |
| O=C(CSc1nc2c(c(=O)[nH]1)CCC2)NC1CCCCC1 |  | < 0.01 µM | < 0.01 µM |
| Cc1cccc(-c2oc3ccc(-c4ccc5c(c4)OCO5)cc3c2C#Cc2cncn2C)c1 |  | 3.08 µM | 2.5 µM |
| Cc1cc(Br)ccc1NC(=O)c1cnc(N2CCN(c3ccccn3)CC2)c2ccccc12 |  |  | 11.4 µM |
| O=C(CSc1nc2c(c(=O)[nH]1)CCCC2)NC1CCCCC1 |  | < 0.01 µM | < 0.01 µM |
| O=c1[nH]c(SCc2ccccc2Cl)nc2c1CCCC2 | 9.5% (inactive) |  |  |
| CCSc1nc2ccccc2c(=O)[nH]1 | 10.8% (inactive) |  |  |
| Cc1nc(SCC(N)=O)[nH]c(=O)c1C | 4.67% (inactive) |  |  |
| CCC(Sc1nc2ccccc2c(=O)[nH]1)C(=O)Nc1cccc(OC)c1 (stereo not drawn) | 14.3% (inactive) |  |  |
| CN(C(=O)CSc1nc2ccccc2c(=O)[nH]1)C1CCCCC1 | 9.68% (inactive) |  |  |
| Cc1cnc(SCC(=O)NC2CCCCC2)[nH]c1=O | 3.92% (inactive) |  |  |
| CCC(Sc1nc2ccccc2c(=O)[nH]1)C(=O)NC1CCCCC1 (stereo not drawn) | 3.23% (inactive) |  |  |
| O=C(CSc1nc2ccccc2c(=O)[nH]1)NC1CCCC1 |  | 0.85 µM | 0.43 µM |
| Cc1[nH]c(=S)[nH]c(=O)c1C | 6.28% (inactive) |  |  |

| SMILES | inhibition [1] | IC90 [2] | IC50 [2] |
| --- | --- | --- | --- |
| NC(=O)CSc1nc2ccccc2c(=O)[nH]1 | 10.4% (inactive) |  |  |
| COc1cccc(NC(=O)CSc2nc3ccccc3c(=O)[nH]2)c1 | 4.59% (inactive) |  |  |
| Cc1cc(=O)[nH]c(SCC(=O)NC2CCCCC2)n1 | -0.61% (inactive) |  |  |
| CCSc1nc(C)c(C)c(=O)[nH]1 | 2.48% (inactive) |  |  |
| COC(=O)c1ccc(CNc2c(N3CCCC3)c(=O)c2=O)cc1 | 4.83% (inactive) |  |  |
| Cc1ccc(NC(=O)CSc2nc3ccccc3c(=O)[nH]2)cc1Cl | 7.6% (inactive) |  |  |
| c1ccc(/N=C2\N=C(Nc3ccccn3)c3ccccc32)nc1 |  | 2.46 µM | 1.68 µM |
| CN(C)C(=O)CSc1nc2ccccc2c(=O)[nH]1 | 9.4% (inactive) |  |  |
| CC(C)CCNC(=O)CSc1nc2ccccc2c(=O)[nH]1 |  | 0.21 µM | < 0.01 µM |
| Cc1cccc(/C=C/C(=O)c2ccc([N+](=O)[O-])o2)c1 |  | 2.22 µM | 1.46 µM |
| Cc1ccc(C(=O)N/N=C(/CC(=O)c2cccs2)C(F)(F)F)cc1 |  | 2.83 µM | 1.33 µM |
| Nc1cc(=O)[nH]c(SCC(=O)NC2CCCCC2)n1 | -0.72% (inactive) |  |  |
| CC(Sc1nc2ccccc2c(=O)[nH]1)C(=O)NC1CCCCC1 (stereo not drawn) | 6.58% (inactive) |  |  |
| COc1ccc(NC(=O)CSc2nc3ccccc3c(=O)[nH]2)cc1 | 11.4% (inactive) |  |  |
| CCOC1OC(=O)C(Cl)=C1Nc1ccccc1C (stereo not drawn) |  | 9.47 µM | 3.2 µM |
| O=C(CSc1nc2ccccc2c(=O)[nH]1)N1CCOCC1 | 11.1% (inactive) |  |  |
| O=c1[nH]c(=S)[nH]c2ccccc12 | 2.16% (inactive) |  |  |
| Cc1cc(=O)[nH]c(=S)[nH]1 | -3.23% (inactive) |  |  |
| CCC(Sc1nc2c(c(=O)[nH]1)CCC2)C(=O)Nc1cccc(OC)c1 (stereo not drawn) | -0.78% (inactive) |  |  |
